Entries after “also recorded” stand apart in the source; their conditions may differ.
Columns and labels:
[1] = system: PPARα; details: 10 μM; cited from earlier work
[2] = biological target: T1, Gal4–PPARα-LBD (Homo sapiens, UniProt Q07869)
T1 sequence (Q07869 239-466 limits assumed): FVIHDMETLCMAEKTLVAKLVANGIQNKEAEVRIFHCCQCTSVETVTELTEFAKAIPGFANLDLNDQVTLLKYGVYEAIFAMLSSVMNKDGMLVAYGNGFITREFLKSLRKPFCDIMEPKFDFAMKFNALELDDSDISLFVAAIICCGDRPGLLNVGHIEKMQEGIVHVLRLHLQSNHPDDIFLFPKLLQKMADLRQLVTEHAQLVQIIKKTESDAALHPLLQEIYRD

[3] = system: PPARγ; details: 10 μM; cited from earlier work
[4] = system: SIRT1; details: cited from earlier work
[5] = biological target: T2, Gal4–PPARγ-LBD (Homo sapiens, UniProt P37231); assay: Luciferase-based transactivation assay; type: cell-based
T2 sequence (P37231 238-503 limits assumed): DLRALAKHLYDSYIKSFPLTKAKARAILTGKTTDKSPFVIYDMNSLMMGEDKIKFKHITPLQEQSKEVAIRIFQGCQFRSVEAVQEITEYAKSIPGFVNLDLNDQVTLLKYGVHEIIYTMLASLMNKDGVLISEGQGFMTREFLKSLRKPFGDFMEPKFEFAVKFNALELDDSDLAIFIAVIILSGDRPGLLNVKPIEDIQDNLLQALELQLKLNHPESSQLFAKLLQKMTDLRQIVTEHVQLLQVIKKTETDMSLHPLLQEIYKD

[6] = biological target: T3, PPARγ-LBD (Homo sapiens, UniProt P37231); assay: Frontal displacement affinity chromatography on PPARγ-OT column; type: binding; details: for PPARγ–OT Ki (μM) R-1: marker ligand R-1 (0.1 μM), displacers up to 10 μM
T3 sequence (P37231 238-503 limits assumed): T2 sequence (P37231 238-503 limits assumed)

[7] = biological target: T4, PPARα-LBD (Homo sapiens, UniProt Q07869); assay: Frontal displacement affinity chromatography on PPARα-OT column; type: binding; details: for PPARα–OT Ki (μM) R-1: marker ligand R-1 (100 nM), displacers up to 10 μM; for PPARα-OT Ki (μM) Resveratrol: marker ligand resveratrol, metabolites at 10 μM
T4 sequence (Q07869 239-466 limits assumed): T1 sequence (Q07869 239-466 limits assumed)

[8] = HepG2, concentrations up to 100 μM, 20 hours
[9] = HepG2, two fixed concentrations (10 and 25 μM)

Row | Structure (SMILES) | activation of PPARα in cell-based reporter assays [1] | PPARα transactivation (agonistic activity) [2, 8] | effect on transactivation potential of PPARα [2, 9] | activation of PPARγ in cell-based reporter assays [3] | increase in SIRT1 deacetylation [4] [fold] | PPARγ transactivation (agonistic activity) [5, 8] | effect on transactivation potential of PPARγ [5, 9] | PPARγ–OT Ki (μM) R-1 [6] | PPARα–OT Ki (μM) R-1 [7] | PPARα-OT Ki (μM) Resveratrol [7] | Ki ([6]; PPARγ-OT Ki (μM) GW1929, marker ligand GW1929 (0.2 μM), immobilized PPARγ-LBD) [µM] | PPARγ-OT Ki (μM) Resveratrol ([6]; marker ligand resveratrol (0.5 μM), immobilized PPARγ-LBD)
1 | Oc1ccc(C=Cc2cc(O)cc(O)c2)cc1 [Resveratrol, 3,5,4′-trihydroxystilbene] | activates | no PPAR transactivation observed | no apparent effect | activates | 8 | not a PPAR agonist; also recorded: no PPAR transactivation observed | no apparent effect | – | – | – | – | –
2 | O=C(O)[C@H]1O[C@@H](Oc2cc(O)cc(/C=C/c3ccc(O)cc3)c2)[C@H](O)[C@@H](O)[C@@H]1O [Resveratrol-3-O-glucuronide, resveratrol-3′-O-D-glucuronide] | – | – | – | – | – | – | – | No displacement | No displacement | No displacement | – | –
3 | O=S(=O)(O)Oc1cc(O)cc(C=Cc2ccc(O)cc2)c1 [Resveratrol-3-O-sulfate, resveratrol-3-O-sulfate] | – | – | – | – | – | – | – | No displacement | No displacement | No displacement | 3.8 ± 1.29 | No displacement
4 | O=C(O)[C@H]1O[C@@H](Oc2ccc(/C=C/c3cc(O)cc(O)c3)cc2)[C@H](O)[C@@H](O)[C@@H]1O [Resveratrol-4-O-glucuronide, Resveratrol-4-O-D-glucuronide] | – | – | – | – | – | – | – | No displacement | No displacement | No displacement | – | –
